Source: patent US9969767B2, “Oxolupene derivatives” (priority 2014, dated 2018)

System: recombinant NL4-3 virus (Renilla luciferase in nef, Gag P373S)
Assay: HIV Cell Culture Assay (luciferase reporter virus in MT-2 cells)
Type: cell-based
Settings: NL43
Description: MT-2 cells and 293T cells were obtained from the NIH AIDS Research and Reference Reagent Program. MT-2 cells were propagated in RPMI 1640 media supplemented with 10% heat inactivated fetal bovine serum, […]. The 293T cells were propagated in DMEM media supplemented with 10% heat inactivated fetal bovine serum (FBS), 100 units/mL penicillin G and 100 μg/mL streptomycin. The proviral DNA clone of NL4-3 was obtained from the NIH AIDS Research and Reference Reagent Program. A recombinant NL4-3 virus, in which a section of the nef gene from NL4-3 was replaced with the Renilla luciferase gene, was used as a reference virus. In addition, residue Gag P373 was converted to P373S. Briefly, the recombinant virus was prepared by transfection of the altered proviral clone of NL4-3. Transfections were performed in 293T cells using LipofectAMINE PLUS from Invitrogen (Carlsbad, Calif.), according to manufacturer's instruction. The virus was titered in MT-2 cells using luciferase enzyme activity as a marker. Luciferase was quantitated using the Dual Luciferase kit from Promega (Madison, Wis.), with modifications to the manufacturer's protocol. The diluted Passive Lysis solution was pre-mixed with the re-suspended Luciferase Assay Reagent and the re-suspended Stop & Glo Substrate (2:1:1 ratio). Fifty (50) μL of the mixture was added to each aspirated well on assay plates and luciferase activity was measured immediately on a Wallac TriLux (Perkin-Elmer). Antiviral activities of inhibitors toward the recombinant virus were quantified by measuring luciferase activity in cells infected for 4-5 days with NLRluc recombinants in the presence serial dilutions of the inhibitor.

| Structure (SMILES) | EC50 [nM] |
| --- | --- |
| CC(C)C1=C2[C@H]3CC[C@@H]4[C@@]5(C)CC=C(C6=CC[C@](CF)(C(=O)O)CC6)C(C)(C)[C@@H]5CC[C@@]4(C)[C@]3(C)CC[C@@]2(NCCN2CCS(=O)(=O)CC2)CC1=O [Example 9, (S)-4-((3aR,5aR,5bR,7aR,11aS,11bR,13aS)-3a-((2-(1,1-dioxidothiomorpholino)ethyl)amino)-1-isopropyl-5a,5b,8,8,11a-pentamethyl-2-oxo-3,3a,4,5,5a,5b,6,7,7a,8,11,11a,11b,12,13,13a-hexadecahydro-2H-cyclopenta[a]chrysen-9-yl)-1-(fluoromethyl)cyclohex-3-enecarboxylic acid] | < 100 |
| CC(C)C1=C2[C@H]3CC[C@@H]4[C@@]5(C)CC=C(C6=CC[C@](CF)(C(=O)O)CC6)C(C)(C)[C@@H]5CC[C@@]4(C)[C@]3(C)CC[C@@]2(NCCN2CCS(=O)(=O)CC2)C=C1c1ccccc1 [Example 17, (S)-4-((3aR,5aR,5bR,7aR,11aS,11bR,13aS)-3a-((2-(1,1-dioxidothiomorpholino)ethyl)amino)-1-isopropyl-5a,5b,8,8,11a-pentamethyl-2-phenyl-4,5,5a,5b,6,7,7a,8,11,11a,11b,12,13,13a-tetradecahydro-3aH-cyclopenta[a]chrysen-9-yl)-1-(fluoromethyl)cyclohex-3-enecarboxylic acid] | 109 |
| CC(C)C1=C2[C@H]3CC[C@@H]4[C@@]5(C)CC=C(C6=CC[C@](CF)(C(=O)O)CC6)C(C)(C)[C@@H]5CC[C@@]4(C)[C@]3(C)CC[C@@]2(CNCCCN2CCS(=O)(=O)CC2)CC1=O [Example 13] | < 100 |
| CC(C)C1=C2[C@H]3CC[C@@H]4[C@@]5(C)CC=C(C6=CCC(C(=O)O)CC6)C(C)(C)[C@@H]5CC[C@@]4(C)[C@]3(C)CC[C@@]2(C(=O)NCCN2CCS(=O)(=O)CC2)CC1=O (stereo partly drawn) [Example 2, 4-((3aR,5aR,5bR,7aR,11aS,11bR,13aS)-3a((2-(1,1-dioxidothiomorpholino)ethyl)carbamoyl)-1-isopropyl-5a,5b,8,8,11a-pentamethyl-2-oxo-3,3a,4,5,5a,5b,6,7,7a,8,11,11a,11b,12,13,13a-hexadecahydro-2H-cyclopenta[a]chrysen-9-yl)cyclohex-3-enecarboxylic acid] | < 100 |
| CC(C)C1=C2[C@H]3CC[C@@H]4[C@@]5(C)CC=C(C6=CC[C@](CF)(C(=O)O)CC6)C(C)(C)[C@@H]5CC[C@@]4(C)[C@]3(C)CC[C@@]2(C(=O)O)CC1=O [Example 5, (3aR,5aR,5bR,7aR,11aS,11bR,13aS)-9-((S)-4-carboxy-4-(fluoromethyl)cyclohex-1-en-1-yl)-1-isopropyl-5a,5b,8,8,11a-pentamethyl-2-oxo-3,3a,4,5,5a,5b,6,7,7a,8,11,11a,11b,12,13,13a-hexadecahydro-2H-cyclopenta[a]chrysene-3a-carboxylic acid] | < 100 |
| CC(C)C1=C2[C@H]3CC[C@@H]4[C@@]5(C)CC=C(C6=CCC(C(=O)O)CC6)C(C)(C)[C@@H]5CC[C@@]4(C)[C@]3(C)CC[C@@]2(C(O)CN(CCN(C)C)Cc2ccc(Cl)cc2)CC1=O (stereo partly drawn) [Example 15, 4-((3aR,5aR,5bR,7aR,11aS,11bR,13aS)-3a-(2-((4-chlorobenzyl)(2-(dimethylamino)ethyl)amino)-1-hydroxyethyl)-1-isopropyl-5a,5b,8,8,11a-pentamethyl-2-oxo-3,3a,4,5,5a,5b,6,7,7a,8,11,11a,11b,12,13,13a-hexadecahydro-2H-cyclopenta[a]chrysen-9-yl)cyclohex-3-enecarboxylic acid] | < 100 |
| CC(C)C1=C2[C@H]3CC[C@@H]4[C@@]5(C)CC=C(C6=CCC(C(=O)O)CC6)C(C)(C)[C@@H]5CC[C@@]4(C)[C@]3(C)CC[C@@]2(N)CC1=O (stereo partly drawn) [Example 7, 4-((3aR,5aR,5bR,7aR,11aS,11bR,13aS)-3a-amino-1-isopropyl-5a,5b,8,8,11a-pentamethyl-2-oxo-3,3a,4,5,5a,5b,6,7,7a,8,11,11a,11b,12,13,13a-hexadecahydro-2H-cyclopenta[a]chrysen-9-yl)cyclohex-3-enecarboxylic acid] | 0.973 |
| CC(C)C1=C2[C@H]3CC[C@@H]4[C@@]5(C)CC=C(c6ccc(C(=O)O)cc6)C(C)(C)[C@@H]5CC[C@@]4(C)[C@]3(C)CC[C@@]2(C(=O)O)CC1=O [Example 3, (3aR,5aR,5bR,7aR,11aS,11bR,13aS)-9-(4-carboxyphenyl)-1-isopropyl-5a,5b,8,8,11a-pentamethyl-2-oxo-3,3a,4,5,5a,5b,6,7,7a,8,11,11a,11b,12,13,13a-hexadecahydro-2H-cyclopenta[a]chrysene-3a-carboxylic acid] | < 100 |
| CC(C)C1=C2[C@H]3CC[C@@H]4[C@@]5(C)CC=C(C6=CC[C@](CF)(C(=O)O)CC6)C(C)(C)[C@@H]5CC[C@@]4(C)[C@]3(C)CC[C@@]2(NCC[N+]2(CCN3CCC(S(C)(=O)=O)CC3)CCC(S(C)(=O)=O)CC2)CC1=O (stereo partly drawn) [Example 12, 1-(2-(((3aR,5aR,5bR,7aR,11aS,11bR,13aS)-9-((S)-4-carboxy-4-(fluoromethyl)cyclohex-1-en-1-yl)-1-isopropyl-5a,5b,8,8,11a-pentamethyl-2-oxo-3,3a,4,5,5a,5b,6,7,7a,8,11,11a,11b,12,13,13a-hexadecahydro-2H-cyclopenta[a]chrysen-3a-yl)amino)ethyl)-4-(methylsulfonyl)-1-(2-(4-(methylsulfonyl)piperidin-1-yl)ethyl)piperidin-1-ium] | < 100 |
| CC(C)C1=C2[C@H]3CC[C@@H]4[C@@]5(C)CC=C(C6=CC[C@](CF)(C(=O)O)CC6)C(C)(C)[C@@H]5CC[C@@]4(C)[C@]3(C)CC[C@@]2(N(CCN2CCS(=O)(=O)CC2)CCN2CCS(=O)(=O)CC2)CC1=O [Example 10, (S)-4-((3aR,5aR,5bR,7aR,11aS,11bR,13aS)-3a-(bis(2-(1,1-dioxidothiomorpholino)ethyl)amino)-1-isopropyl-5a,5b,8,8,11a-pentamethyl-2-oxo-3,3a,4,5,5a,5b,6,7,7a,8,11,11a,11b,12,13,13a-hexadecahydro-2H-cyclopenta[a]chrysen-9-yl)-1-(fluoromethyl)cyclohex-3-enecarboxylic acid] | < 100 |
| CC(C)C1=C2[C@H]3CC[C@@H]4[C@@]5(C)CC=C(c6ccc(C(=O)O)cc6)C(C)(C)[C@@H]5CC[C@@]4(C)[C@]3(C)CC[C@@]2(C(O)CNCCN(C)C)CC1=O (stereo partly drawn) [Example 14, 4-((3aR,5aR,5bR,7aR,11aS,11bR,13aS)-3a-(2-((2-(dimethylamino)ethyl)amino)-1-hydroxyethyl)-1-isopropyl-5a,5b,8,8,11a-pentamethyl-2-oxo-3,3a,4,5,5a,5b,6,7,7a,8,11,11a,11b,12,13,13a-hexadecahydro-2H-cyclopenta[a]chrysen-9-yl)benzoic acid] | 5.36 |
| CC(C)C1=C2[C@H]3CC[C@@H]4[C@@]5(C)CC=C(C6=CC[C@](CF)(C(=O)O)CC6)C(C)(C)[C@@H]5CC[C@@]4(C)[C@]3(C)CC[C@@]2(CNCCCN2CCS(=O)(=O)CC2)C=C1c1ccccc1 [Example 16, (S)-4-((3aR,5aR,5bR,7aR,11aS,11bR,13aS)-3a-(((3-(1,1-dioxidothiomorpholino)propyl)amino)methyl)-1-isopropyl-5a,5b,8,8,11a-pentamethyl-2-phenyl-4,5,5a,5b,6,7,7a,8,11,11a,11b,12,13,13a-tetradecahydro-3aH-cyclopenta[a]chrysen-9-yl)-1-(fluoromethyl)cyclohex-3-enecarboxylic acid] | 2.64 |
